From patent US20110118239A1, “PREPARATION AND ENANTIOMERIC SEPARATION OF 7-(3-PYRIDINYL)-1,7-DIAZASPIRO[4.4]NONANE AND NOVEL SALT FORMS OF THE RACEMATE AND ENANTIOMERS” (Targacept, Inc., priority 2008, published 2011)
Several values for one entry are separate records, joined by “and”; a condition that tells them apart may be missing. Equal entries are not always repeated. Structures can show the parent of a compound that is named as a salt. Where two headings read alike, the source gives them in different places.

Columns and labels:
[1] = Dynamic vapor sorption (DVS) analysis; type: physicochemical
Procedure: In a dynamic vapor sorption (DVS) apparatus, a sample of (R)-7-(3-pyridinyl)-1,7-diazaspiro[4.4]nonane mono-p-hydroxybenzoate (˜14.1 mg) was subjected to gradually increasing, followed by then gradually decreasing, humidity over a period of about 10 h (see details below). […] Given its relatively high melting point and crystalline nature, it is therefore a particularly good candidate for drug development.

[2] = test system: non-selective peripheral muscarinic; assay: Standard receptor screen at 10 μM: non-selective peripheral muscarinic; type: binding; details: hydrochloride salt
Procedure: (§1) Both Compound A, (R)-7-(3-pyridinyl)-1,7-diazaspiro[4.4]nonane, and Compound B, (S)-7-(3-pyridinyl)-1,7-diazaspiro[4.4]nonane, each as their hydrochloride salts, were screened, at 10 μM concentration, against a standard set of receptors. […] Thus, the two stereoisomers differentiate from one another in terms of their non-nicotinic receptor binding characteristics. This differentiation is believed to translate into a differentiation between the ability of each of (R)-7-(3-pyridinyl)-1,7-diazaspiro[4.4]nonane and (S)-7-(3-pyridinyl)-1,7-diazaspiro[4.4]nonane to treat various disease states, including, for example, the ability of Compound A to enhance desensitization of α4β2 NNRs.

[3] = test system: nicotinic; assay: Standard receptor screen at 10 μM: nicotinic; type: binding; details: hydrochloride salt
Procedure: as §1

[4] = molecular target: T1, human α4β2 NNRs (Homo sapiens, UniProt P17787+P43681); assay: Function at human α4β2 NNRs, SH-EP1/human a4b2 cells, FLIPR calcium; type: cell-based; details: SH-EP1/human a4b2 cells, FLIPR calcium
T1 construct: expressed in transfected cells; host or cells: SH-EP1
Procedure: (§2) Binding and function of the compounds to relevant receptor sites was determined in accordance with the techniques described in PCT WO 2008/057938. Inhibition constants (Ki values), reported in nM, were calculated from the IC50 values using the method of Cheng et al., Biochem. Pharmacol. 22: 3099 (1973). […] Thus, the compounds of the present invention are selective modulators of the α4β2 NNR subtype.
After the loading period, plates were equilibrated to room temperature and the cells exposed to the test article ([…]) or nicotine or buffer alone on a FLIPR (Molecular Devices). Fluorescence (at 485 nm) was monitored throughout the experiment. The test article change in fluorescence was compared to both a positive control (10 μM nicotine) and a negative control (buffer alone) to determine the percent response relative to that of nicotine.

[5] = Single rising dose (SRD) study of Compound C, plasma pharmacokinetics of racemate and enantiomers; type: in vivo; details: for t1/2 (mean) / Cmax / Tmax / AUC(0-inf) / half-life: plasma; for t1/2 (mean): Table 3; for Cmax / Tmax / AUC(0-inf) / half-life: human, po; for AUC(0-inf): read-out: AUCinf (mean); for half-life: read-out: Mean (SD) Terminal Elimination Half-life (converted)
Procedure: A single, rising dose (SRD) study was performed with Compound C (the racemate). Plasma samples were analyzed for the content of the two enantiomers, Compound A (substantially pure R), Compound B (substantially pure S). Three dose groups (Compound C) were analyzed, 50, 100, and 400 mg, and four subjects were randomly selected from the 6 subjects tested to receive active treatment in each cohort examined in the SRD study.

[6] = test system: animal models of depression and anxiety; assay: Validated animal models of depression and anxiety (summary statement); details: in vivo
[7] = test system: non-selective central muscarinic; assay: Standard receptor screen at 10 μM: non-selective central muscarinic; type: binding; details: hydrochloride salt
Procedure: as §1

[8] = molecular target: Human α4β2 (Homo sapiens, UniProt P17787+P43681); assay: Binding to human α4β2 NNR (Ki); details: read-out: Human α4β2 Ki
Procedure: as §2

[9] = molecular target: Rat α4β2 (Rattus norvegicus, UniProt P09483+P12390); assay: Binding to rat α4β2 NNR (Ki); details: read-out: Rat α4β2 Ki
Procedure: as §2

[10] = molecular target: Human Ganglion (Homo sapiens, UniProt P30926+P32297); assay: Function at human ganglion subtype, single point 100 μM; type: cell-based
Procedure: as §2

[11] = test system: rats; assay: Seizure/convulsion induction after acute dose, rats; type: in vivo; details: male rats; acute oral dose of 300 mg/kg
Procedure: For example, preclinically, Compound C induced seizures following acute doses:
Likewise, Compound B induced convulsion in 1/6 male rats following an acute oral dose of 300 mg/kg.
In fact, the effect of Compound A was not statistically different from the vehicle control.

[12] = test system: non-elective sigma; assay: Standard receptor screen at 10 μM: sigma; type: binding; details: hydrochloride salt
Procedure: as §1

[13] = molecular target: histamine H3 (Homo sapiens, UniProt Q9Y5N1); assay: Standard receptor screen at 10 μM: histamine H3; type: binding; details: hydrochloride salt, read-out: inhibition at histamine H3 receptors
Procedure: as §1

[14] = molecular target: Human Muscle (Homo sapiens, UniProt P02708+P07510+Q07001); assay: Function at human muscle subtype, single point 100 μM; type: cell-based
Procedure: as §2

[15] = molecular target: Rat α7 (Rattus norvegicus, UniProt Q05941); assay: Binding to rat α7 NNR (Ki); details: read-out: Rat α7 Ki
Procedure: as §2

[16] = molecular target: T2, muscarinic M1 (Homo sapiens, UniProt P11229); assay: Standard receptor screen at 10 μM: muscarinic M1; type: binding; details: hydrochloride salt, read-out: inhibition at muscarinic M1 receptors
T2 sequence (P11229 1-460): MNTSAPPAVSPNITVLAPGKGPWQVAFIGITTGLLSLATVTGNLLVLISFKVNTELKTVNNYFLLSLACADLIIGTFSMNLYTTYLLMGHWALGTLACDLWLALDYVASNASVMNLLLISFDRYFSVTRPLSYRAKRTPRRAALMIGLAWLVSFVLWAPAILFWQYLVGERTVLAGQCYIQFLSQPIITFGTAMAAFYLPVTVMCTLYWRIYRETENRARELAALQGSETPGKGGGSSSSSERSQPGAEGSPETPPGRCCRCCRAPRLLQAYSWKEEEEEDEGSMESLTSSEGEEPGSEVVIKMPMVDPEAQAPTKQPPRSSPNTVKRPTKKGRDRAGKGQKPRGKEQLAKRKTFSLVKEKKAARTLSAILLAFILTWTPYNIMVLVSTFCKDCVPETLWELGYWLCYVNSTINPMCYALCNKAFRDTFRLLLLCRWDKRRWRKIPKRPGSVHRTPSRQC
Procedure: as §1

[17] = test system: A/J mice; assay: Depression model, tail suspension (TS); type: in vivo; details: 20 mg/kg, 10 min test
Procedure: On the day of the test, A/J mice were brought to acclimate to the testing room for one hour. Eight animals were tested in each run. Following pretreatment with vehicle, desipramine (20 mg/kg) or Compound A, p-hydroxybenzoate (0.1, 0.3, and 1 mg/kg), a piece of transparent (Scotch) tape was attached to the tail of each mouse from about mid-tail with approximately 2 cm of tape past the end of the tail. The mice were then placed in the tail suspension chambers (white polyvinylchloride cubicles measuring 33×33×31.75 cm; Med Associates Inc., St Albans, Vt.). The mice were suspended from the hook of the TS force transducer via the tail tape. The force transducer transmitted the movements of the mouse to a recording device connected to a computer. Immobility time, struggle time, and intensity were automatically recorded for each min during the 10 min test period. Upon completion of the TS test, the mice were returned to their home cage and then to the animal colony. The TS chambers were cleaned between sessions. Data were analyzed by repeated measures and one-way analysis of variance (ANOVA) followed by Fisher PLSD post-hoc comparisons. An effect was considered significant if p<0.05.

T1 sequence (P43681 29-627 limits assumed): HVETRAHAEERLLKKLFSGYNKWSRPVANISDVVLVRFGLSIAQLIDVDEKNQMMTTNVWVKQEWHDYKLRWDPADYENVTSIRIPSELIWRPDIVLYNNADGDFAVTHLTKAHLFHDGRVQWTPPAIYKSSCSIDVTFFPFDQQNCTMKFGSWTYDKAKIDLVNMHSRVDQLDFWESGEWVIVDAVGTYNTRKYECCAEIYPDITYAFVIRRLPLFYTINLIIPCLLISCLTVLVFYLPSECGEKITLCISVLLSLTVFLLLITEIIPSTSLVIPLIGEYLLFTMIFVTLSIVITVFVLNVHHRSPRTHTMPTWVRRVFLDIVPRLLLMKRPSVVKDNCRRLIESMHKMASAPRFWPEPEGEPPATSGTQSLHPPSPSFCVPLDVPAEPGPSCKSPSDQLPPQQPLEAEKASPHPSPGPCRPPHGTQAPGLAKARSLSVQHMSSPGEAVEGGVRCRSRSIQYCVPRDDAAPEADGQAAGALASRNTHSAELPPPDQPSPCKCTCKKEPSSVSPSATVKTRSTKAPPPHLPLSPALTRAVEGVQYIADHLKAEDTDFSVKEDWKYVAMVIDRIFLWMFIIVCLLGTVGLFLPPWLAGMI
T1 sequence (P17787 26-502): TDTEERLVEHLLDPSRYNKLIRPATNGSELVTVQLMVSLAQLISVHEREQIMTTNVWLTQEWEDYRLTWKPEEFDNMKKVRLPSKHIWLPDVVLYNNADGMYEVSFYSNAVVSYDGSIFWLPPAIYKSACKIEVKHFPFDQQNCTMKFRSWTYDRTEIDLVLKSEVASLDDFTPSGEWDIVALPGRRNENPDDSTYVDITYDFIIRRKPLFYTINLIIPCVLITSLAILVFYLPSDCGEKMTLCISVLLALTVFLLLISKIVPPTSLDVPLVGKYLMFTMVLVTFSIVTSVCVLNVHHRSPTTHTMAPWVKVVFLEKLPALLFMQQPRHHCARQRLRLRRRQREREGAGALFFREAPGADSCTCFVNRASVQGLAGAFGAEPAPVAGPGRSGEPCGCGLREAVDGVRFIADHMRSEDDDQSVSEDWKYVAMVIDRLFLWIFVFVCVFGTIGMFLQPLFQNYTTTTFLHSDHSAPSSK
Sequence of Human α4β2 (P43681 29-627 limits assumed): as the sequence (P43681 29-627 limits assumed) above
Sequence of Human α4β2 (P17787 26-502): as the sequence (P17787 26-502) above
Sequence of Human Ganglion (P32297 32-505): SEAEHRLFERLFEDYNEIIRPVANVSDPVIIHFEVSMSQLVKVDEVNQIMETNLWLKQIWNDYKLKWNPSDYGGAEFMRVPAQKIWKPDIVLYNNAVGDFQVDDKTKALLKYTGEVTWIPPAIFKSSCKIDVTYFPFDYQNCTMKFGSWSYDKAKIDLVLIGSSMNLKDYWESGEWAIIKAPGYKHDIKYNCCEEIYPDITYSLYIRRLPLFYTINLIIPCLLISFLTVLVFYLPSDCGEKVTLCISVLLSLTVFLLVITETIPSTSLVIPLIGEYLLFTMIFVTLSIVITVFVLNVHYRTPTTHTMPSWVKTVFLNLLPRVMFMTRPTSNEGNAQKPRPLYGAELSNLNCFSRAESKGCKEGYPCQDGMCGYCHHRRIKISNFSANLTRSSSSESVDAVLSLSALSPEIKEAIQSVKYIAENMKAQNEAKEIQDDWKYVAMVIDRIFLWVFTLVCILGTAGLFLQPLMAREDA
Sequence of Human Ganglion (P30926 22-498): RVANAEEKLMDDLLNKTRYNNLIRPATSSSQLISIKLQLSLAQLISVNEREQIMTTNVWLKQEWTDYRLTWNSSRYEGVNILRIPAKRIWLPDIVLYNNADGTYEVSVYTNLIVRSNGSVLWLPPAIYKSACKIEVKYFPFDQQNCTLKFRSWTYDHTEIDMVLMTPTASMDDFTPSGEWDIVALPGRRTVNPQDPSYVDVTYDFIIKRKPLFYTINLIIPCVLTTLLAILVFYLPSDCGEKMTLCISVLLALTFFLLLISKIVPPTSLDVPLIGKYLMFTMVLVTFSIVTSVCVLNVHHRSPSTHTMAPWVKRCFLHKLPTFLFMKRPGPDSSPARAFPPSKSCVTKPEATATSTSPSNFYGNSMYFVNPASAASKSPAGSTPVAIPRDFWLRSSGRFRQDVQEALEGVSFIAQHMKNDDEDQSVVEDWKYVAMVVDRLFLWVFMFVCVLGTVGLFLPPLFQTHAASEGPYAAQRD
Sequence of Rat α4β2 (P09483 31-630): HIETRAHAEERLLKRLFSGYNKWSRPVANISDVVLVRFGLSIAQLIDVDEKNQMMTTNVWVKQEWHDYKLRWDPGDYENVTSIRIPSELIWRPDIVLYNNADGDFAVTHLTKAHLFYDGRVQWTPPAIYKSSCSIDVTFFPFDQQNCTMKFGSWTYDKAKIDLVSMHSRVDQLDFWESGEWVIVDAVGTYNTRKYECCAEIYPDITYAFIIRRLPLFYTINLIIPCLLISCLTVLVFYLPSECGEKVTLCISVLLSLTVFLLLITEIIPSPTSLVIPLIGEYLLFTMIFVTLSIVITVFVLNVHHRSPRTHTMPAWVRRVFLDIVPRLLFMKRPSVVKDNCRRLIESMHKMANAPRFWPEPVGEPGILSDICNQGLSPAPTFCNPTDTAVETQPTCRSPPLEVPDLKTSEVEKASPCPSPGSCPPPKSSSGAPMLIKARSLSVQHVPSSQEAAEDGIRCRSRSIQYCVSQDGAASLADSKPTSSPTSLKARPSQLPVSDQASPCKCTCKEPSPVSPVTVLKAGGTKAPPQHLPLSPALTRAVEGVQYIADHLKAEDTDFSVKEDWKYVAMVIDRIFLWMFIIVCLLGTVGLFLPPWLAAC
Sequence of Rat α4β2 (P12390 25-500): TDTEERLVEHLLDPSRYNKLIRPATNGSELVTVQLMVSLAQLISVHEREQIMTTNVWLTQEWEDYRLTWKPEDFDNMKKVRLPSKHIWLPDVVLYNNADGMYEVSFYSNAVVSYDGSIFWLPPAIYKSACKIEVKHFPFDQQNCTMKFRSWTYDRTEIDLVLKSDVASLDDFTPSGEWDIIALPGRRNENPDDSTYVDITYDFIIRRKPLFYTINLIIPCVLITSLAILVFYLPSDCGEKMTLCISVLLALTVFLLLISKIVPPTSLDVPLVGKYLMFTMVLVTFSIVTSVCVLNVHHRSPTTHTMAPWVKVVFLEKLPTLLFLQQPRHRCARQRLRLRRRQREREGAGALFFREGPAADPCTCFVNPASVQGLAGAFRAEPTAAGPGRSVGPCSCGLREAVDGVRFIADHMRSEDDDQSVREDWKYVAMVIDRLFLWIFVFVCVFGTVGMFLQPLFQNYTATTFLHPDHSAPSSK
Sequence of Rat α7 (Q05941 23-502): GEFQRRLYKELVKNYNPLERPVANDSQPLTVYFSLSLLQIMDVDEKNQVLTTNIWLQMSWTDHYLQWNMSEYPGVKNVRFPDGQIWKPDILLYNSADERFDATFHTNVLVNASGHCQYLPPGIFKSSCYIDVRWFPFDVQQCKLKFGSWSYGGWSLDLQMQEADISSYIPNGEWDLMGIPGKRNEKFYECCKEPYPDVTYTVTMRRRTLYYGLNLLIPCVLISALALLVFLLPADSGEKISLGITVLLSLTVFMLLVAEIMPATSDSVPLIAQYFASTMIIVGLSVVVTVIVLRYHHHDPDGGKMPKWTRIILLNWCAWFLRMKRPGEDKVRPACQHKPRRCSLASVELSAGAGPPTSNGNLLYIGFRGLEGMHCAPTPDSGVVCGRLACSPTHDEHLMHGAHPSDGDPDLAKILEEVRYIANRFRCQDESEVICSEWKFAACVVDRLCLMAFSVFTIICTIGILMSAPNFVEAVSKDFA
Sequence of histamine H3 (Q9Y5N1 whole entry): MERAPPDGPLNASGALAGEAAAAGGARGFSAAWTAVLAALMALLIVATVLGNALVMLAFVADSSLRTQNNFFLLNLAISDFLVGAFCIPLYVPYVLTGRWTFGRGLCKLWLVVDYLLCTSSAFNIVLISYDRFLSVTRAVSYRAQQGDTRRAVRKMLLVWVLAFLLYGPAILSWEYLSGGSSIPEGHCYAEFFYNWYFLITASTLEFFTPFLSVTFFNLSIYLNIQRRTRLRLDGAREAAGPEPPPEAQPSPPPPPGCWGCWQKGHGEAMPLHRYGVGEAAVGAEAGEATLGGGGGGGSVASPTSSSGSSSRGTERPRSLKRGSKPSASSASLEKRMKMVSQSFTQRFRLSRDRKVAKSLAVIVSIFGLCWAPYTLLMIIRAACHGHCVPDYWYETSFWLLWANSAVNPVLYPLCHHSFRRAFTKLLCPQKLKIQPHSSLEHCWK

Work on `O=C(O)CCC(=O)O.c1cncc(N2CCC3(CCCN3)C2)c1` (stereo not drawn) yielded a melting point of 131.5 to 133 °C.
With `Cl.Cl.c1cncc(N2CCC3(CCCN3)C2)c1` (stereo not drawn) the melting point was 242 to 244 °C.
For `O.O=C(O)C(=O)O.O=C(O)C(=O)O.c1cncc(N2CCC3(CCCN3)C2)c1` (stereo not drawn) (hydrate or solvate), the melting point was 200 to 201.5 °C.
For `c1cncc(N2CCC3(CCCN3)C2)c1` (racemic) (as salt: hydrochloride) [Compound C, 7-(3-pyridinyl)-1,7-diazaspiro[4.4]nonane], the melting point was 227 to 232 °C and 227 to 233 °C.
With `O=C(O)c1ccc(O)cc1.c1cncc(N2CC[C@]3(CCCN3)C2)c1` [(R)-7-(3-pyridinyl)-1,7-diazaspiro[4.4]nonane mono-p-hydroxybenzoate] the stability to humidity ([1]; DVS) was “particularly stable to high humidity” and the “weight gain during the course of the DVS study” value ([1]; increasing then decreasing humidity over about 10 h) was “less than 0.2 wt %”.
With `c1cncc(N2CC[C@@]3(CCCN3)C2)c1` [Compound B, (S)-7-(3-pyridinyl)-1,7-diazaspiro[4.4]nonane] the “inhibition at non-selective peripheral muscarinic receptors” value [2] was 84 % inhibition, the “inhibition at nicotinic receptors” value [3] was 99 % inhibition and the EC50 ([4]; read-out: Human α4β2 EC50) was 3900 nM. For the same compound, the Emax ([4]; relative to 10 μM nicotine, read-out: Human α4β2 Emax (% of nic resp)) was 87%, the “t1/2 (mean)” value ([5]; 50 mg Compound C (n = 4)) was 21.0 h and the “t1/2 (mean)” value ([5]; 100 mg Compound C (n = 4)) was 17.8 h. For the same compound, the “t1/2 (mean)” value ([5]; 400 mg Compound C (n = 4)) was 16.6 h, the Cmax ([5]; 50 mg Compound C (n = 4)) was 12.1 ng/mL and the Tmax ([5]; 50 mg Compound C (n = 4)) was 3.13 h. The AUC(0-inf) ([5]; 50 mg Compound C (n = 4)) was 237 ng·h/mL, the half-life ([5]; 50 mg Compound C (n = 4)) was 21 h and the Cmax ([5]; 100 mg Compound C (n = 4)) was 24.6 ng/mL. It also gave a Tmax ([5]; 100 mg Compound C (n = 4)) of 2.75 h, an AUC(0-inf) ([5]; 100 mg Compound C (n = 4)) of 364 ng·h/mL and a half-life ([5]; 100 mg Compound C (n = 4)) of 17.8 h. For the same compound, the Cmax ([5]; 400 mg Compound C (n = 4)) was 158 ng/mL, the Tmax ([5]; 400 mg Compound C (n = 4)) was 2 h and the AUC(0-inf) ([5]; 400 mg Compound C (n = 4)) was 2130 ng·h/mL. For the same compound, the half-life ([5]; 400 mg Compound C (n = 4)) was 16.6 h, the “share of total exposure (Cmax and AUCinf) compared to the racemate, Compound C” value ([5]; oral administration of Compound C) was “approximately half” and the “Efficacy in multiple validated animal models of depression and anxiety” value [6] was “failed to demonstrate activity”. For the same compound, the “inhibition at non-selective central muscarinic receptors” value [7] was 84 % inhibition, the Ki [8] was 30 nM and the Ki [9] was 82 nM. For the same compound, the “Human Ganglion SP (100 μM)” value [10] was 18, the “induced convulsion (animals affected)” value [11] was 1/6 and the “inhibition at non-elective sigma receptors” value [12] was 56 % inhibition. For the same compound, the inhibition at 10 µM [13] was 58%, the “Human Muscle SP (100 μM)” value [14] was <1 and the Ki [15] was > 10000 nM. For the same compound, the inhibition at 10 µM [16] was 53%.
In the case of `CNCCCN1c2ccccc2CCc2ccccc21` [desipramine, reference compound], the “struggle intensity compared to saline” value [17] is reported as “increased struggle intensity” and the “total time immobile compared to saline” value [17] is reported as “decreased total time immobile”.
